Test results reported in patent US20130303539A1, “COMPOUNDS WITH TRPV4 ACTIVITY, COMPOSITIONS AND ASSOCIATED METHODS THEREOF” (priority 2012, published 2013).

Tests used:
[1] = system: Müller cells; assay: Arachidonic acid-induced [Ca2+]i in Müller cells; assay type: cell-based; details: 1 μM, against 10 μM arachidonic acid
Method: This response is blocked by Compound 1 (1 μM).

[2] = system: retinal neurons (RGCs) and glia (Müller cells); assay: Hypotonic stimuli: cell swelling (change in cell area) and [Ca++]i; assay type: cell-based
Source text: FIG. 18A illustrates the effect of hypotonic stimuli on cell swelling as measured by change in cell area. Hypotonic stimuli were generated by replacing extracellular sodium levels to lower osmolarity from 300 mOsm to 190 mOsm.

[3] = molecular target: TRPV4 (Mus musculus, UniProt Q9EPK8); assay: Block of TRPV4 agonist-induced calcium responses in retinal ganglion cells; assay type: cell-based; set-up: endogenous in cells; host or cells: retinal Müller glial cells
Method: Calcium responses in retinal ganglion cells were elicited by 25 nM agonist GSK in the presence of varying concentrations of Compound 1. The half-maximal dose of inhibition was ˜300 nM.

[4] = system: retinal ganglion cells; assay: In vivo intraocular injection of TRPV4 agonist GSK, NeuN+ RGC count; details: intraocular GSK, 48 hours
Method: In this experiment, GSK (100-300 nM) was injected intraocularly with a Hamilton syringe. Retinas were isolated after 48 hours, fixed and labeled with the RGC marker antibody NeuN. NeuN-immunopositive somata in the ganglion cell layer, shown in the panel on the right, were counted. The bar graph represents quantification of NeuN^+ cells in the indicated experimental groups.

[5] = system: retinal ganglion cells; assay: TUNEL assay of apoptotic cell death in retina; assay type: cell-based; details: Compound 1 1 uM, RuR 10 μM
Method: Terminal deoxynucleotidyl transferase-mediated dUTP-biotin nick end labeling (TUNEL) is a common method for detecting fragmentation that results from apoptotic signaling cascades. Retinas were embedded, cryosectioned, and processed for the TUNEL assay following the protocol by Gavrieli et al. (1992). After 30 min. rehydration in 70% ethanol, 2×5 min. rinses in PBS and 1% Triton-X in 1% citrate buffer (pH 7.3), the slides were subjected to a final rinse in PBS. Slides were then incubated for 30 min. in the reaction buffer (30 mM Trizma-HCl, 140 mM Na^+ cacodylate, 1.0 mM CaCl2, 0.2% Triton X-100, pH 7.2). Positive controls were treated with DNAse I (Roche Diagnostics; Branford, Conn.; 10 U/ml) in the reaction buffer. Next, slides were treated for 1 hour with 0.03 units/pi terminal transferase and 4 μM biotin-16-dUTP (Roche Diagnostics). The reaction was terminated in 30 mM Na+ citrate, 300 mM NaCl and 0.2% Triton X-100 in PBS (5 min.) and rinsed in PBS (2×5 min), exposed to 1% bovine serum albumin in PBS for 20 min and rinsed. Apoptotic cells were visualized with a confocal microscope (Zeiss LSM510) and categorized by size. […] This was blocked by RuR and by the TRPV4 antagonist Compound 1.

[6] = system: MB mouse model of glaucoma; assay: IOP in microbead (MB) mouse model of glaucoma, intraperitoneal dosing; assay type: in vivo
Method: FIG. 2 confirms that the mouse model for glaucoma causes RGC degeneration. Specifically, microbeads (MBs) were injected into the anterior chamber of a mouse eye. The MBs increase intraocular IOP above 15 mm Hg by blocking outflow of the aqueous humor within the anterior chamber of the eye. MBs were reinjected as needed to maintain a high IOP, typically one injection every two weeks. Contralateral eyes were injected intraocularly with the vehicle PBS (phosphate buffered saline) as controls. […] IOP levels were measured at least twice weekly before and after intraocular injections. After injections, mice recovered for 48 hours before IOP measurements resumed. […] Retinas were then removed and processed for immunohistochemistry (IHC). […] After rinsing with PBS, PBS containing the secondary antibody conjugated to fluorophores (Alexa 488 or Alexa 594; […] Retinas were rinsed and flat-mounted on microscope slides. Mounting medium was added and retinal wholemounts were coverslipped. The density of RGCs was imaged with a confocal microscope (Zeiss LSM 510) and quantified by counting NeuN-, CFP- and/or Tuj-1—labeled somata in the RGC layer of the retinal wholemount preparation. Injection of microbeads induces RGC degeneration after 8 weeks but not after 4 weeks. […] Mice were sedated with IP injection of Avertin with final amount calculated by weight (e.g., 0.5 ml for 21-24 g animals). […]

[7] = system: retinal ganglion cell; assay: Pressure-induced inward currents, High-Speed Pressure Clamp, voltage-clamped retinal ganglion cell; assay type: cell-based; details: pressure steps from 10 mm Hg to 50 mm Hg
Method: The cell was voltage clamped and stimulated with the High-Speed Pressure Clamp method, as detailed by Besch et al (Pflugers Arch. 2002 October; 445(1):161-6). This method consists of a specialized headstage coupled to a piezo element in the pressure/vacuum control valve. By balancing the access of pressure to the patch pipette, the device generates rapid and reproducible pressure steps of >±200 mm Hg. Channel activity is recorded in the cell-attached mode or the membrane is “zapped” into the outside-out configuration.

TRPV4, sequence (Q9EPK8 whole entry): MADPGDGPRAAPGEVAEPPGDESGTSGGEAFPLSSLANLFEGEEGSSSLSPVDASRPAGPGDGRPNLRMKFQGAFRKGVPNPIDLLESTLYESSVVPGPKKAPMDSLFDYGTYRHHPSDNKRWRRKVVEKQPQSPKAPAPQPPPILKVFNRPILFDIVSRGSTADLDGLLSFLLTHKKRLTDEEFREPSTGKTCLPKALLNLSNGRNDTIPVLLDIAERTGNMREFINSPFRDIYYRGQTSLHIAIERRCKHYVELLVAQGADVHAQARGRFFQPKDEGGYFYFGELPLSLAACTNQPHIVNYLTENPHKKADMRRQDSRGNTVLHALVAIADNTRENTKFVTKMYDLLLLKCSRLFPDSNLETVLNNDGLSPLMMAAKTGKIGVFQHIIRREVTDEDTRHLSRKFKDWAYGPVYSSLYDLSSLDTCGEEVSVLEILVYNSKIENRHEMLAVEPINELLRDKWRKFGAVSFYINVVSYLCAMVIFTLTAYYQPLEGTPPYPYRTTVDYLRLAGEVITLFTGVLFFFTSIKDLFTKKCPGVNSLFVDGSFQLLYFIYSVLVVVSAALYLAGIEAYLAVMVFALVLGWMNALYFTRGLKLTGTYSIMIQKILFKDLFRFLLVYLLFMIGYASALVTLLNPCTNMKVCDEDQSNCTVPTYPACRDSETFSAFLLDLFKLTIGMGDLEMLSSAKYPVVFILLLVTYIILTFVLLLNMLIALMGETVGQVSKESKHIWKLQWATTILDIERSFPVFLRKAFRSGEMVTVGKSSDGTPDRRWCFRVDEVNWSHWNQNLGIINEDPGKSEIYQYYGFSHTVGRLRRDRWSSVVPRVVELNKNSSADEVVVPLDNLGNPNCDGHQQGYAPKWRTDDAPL

Cc1c(C(=O)Nc2cccc(C(F)(F)F)c2)cc(-c2ccccc2)n1CCCN1CCOCC1 [Compound 1, N-(3-(trifluoromethyl)phenyl)-2-methyl-1-(3-morpholinopropyl)-5-phenyl-1H-pyrrole-3-carboxamide]
block of arachidonic acid-induced [Ca2+]i increase [1]: blocked | hypotonic stimuli-induced increase in [Ca++]i (FIG. 18B) ([2]; hypotonic stimuli): inhibited | cell swelling (change in cell area) ([2]; osmolarity lowered from 300 mOsm to 190 mOsm): prevented hypotonic stimuli-mediated cell swelling to the same extent as BAPTA-AM | IC50 [3]: ~300 nM | block of GSK-induced RGC degeneration [4]: blocked | apoptotic cell death (TUNEL) induced by hypotonic swelling ([5]; 190 mOsm saline): block apoptotic cell death | apoptotic cell death (TUNEL) induced by the TRPV4 agonist GSK ([5]; GSK 100 nM): block apoptotic cell death | IOP ([6]; 10 mg/kg body weight intraperitoneally, MB-injected eyes vs PBS-injected eyes): blocked the increase in IOP to the level observed in control mice | average IOP, cumulative effectiveness ([6]; daily IP injections, cumulative data from 3 independent experiments): blocks MB-induced increases in IOP | pressure-induced inward currents [7]: reversibly antagonized
